Where a name gives a salt, the structure may show the parent alone.
Assays:
Format in all cases: cell-based
human TLR7 = biological target: T1, human TLR7 (Homo sapiens, UniProt Q9NYK1); assay: TLR7 inhibition reporter assay (HEK-Blue cells, SEAP reporter, gardiquimod stimulation); conditions: HEK-Blue cells overexpressing human TLR7, SEAP reporter, gardiquimod 7.5 μM; read-out: TLR7 IC50
T1 construct: host or cells: HEK-Blue cells
T1 sequence (Q9NYK1 27-1049): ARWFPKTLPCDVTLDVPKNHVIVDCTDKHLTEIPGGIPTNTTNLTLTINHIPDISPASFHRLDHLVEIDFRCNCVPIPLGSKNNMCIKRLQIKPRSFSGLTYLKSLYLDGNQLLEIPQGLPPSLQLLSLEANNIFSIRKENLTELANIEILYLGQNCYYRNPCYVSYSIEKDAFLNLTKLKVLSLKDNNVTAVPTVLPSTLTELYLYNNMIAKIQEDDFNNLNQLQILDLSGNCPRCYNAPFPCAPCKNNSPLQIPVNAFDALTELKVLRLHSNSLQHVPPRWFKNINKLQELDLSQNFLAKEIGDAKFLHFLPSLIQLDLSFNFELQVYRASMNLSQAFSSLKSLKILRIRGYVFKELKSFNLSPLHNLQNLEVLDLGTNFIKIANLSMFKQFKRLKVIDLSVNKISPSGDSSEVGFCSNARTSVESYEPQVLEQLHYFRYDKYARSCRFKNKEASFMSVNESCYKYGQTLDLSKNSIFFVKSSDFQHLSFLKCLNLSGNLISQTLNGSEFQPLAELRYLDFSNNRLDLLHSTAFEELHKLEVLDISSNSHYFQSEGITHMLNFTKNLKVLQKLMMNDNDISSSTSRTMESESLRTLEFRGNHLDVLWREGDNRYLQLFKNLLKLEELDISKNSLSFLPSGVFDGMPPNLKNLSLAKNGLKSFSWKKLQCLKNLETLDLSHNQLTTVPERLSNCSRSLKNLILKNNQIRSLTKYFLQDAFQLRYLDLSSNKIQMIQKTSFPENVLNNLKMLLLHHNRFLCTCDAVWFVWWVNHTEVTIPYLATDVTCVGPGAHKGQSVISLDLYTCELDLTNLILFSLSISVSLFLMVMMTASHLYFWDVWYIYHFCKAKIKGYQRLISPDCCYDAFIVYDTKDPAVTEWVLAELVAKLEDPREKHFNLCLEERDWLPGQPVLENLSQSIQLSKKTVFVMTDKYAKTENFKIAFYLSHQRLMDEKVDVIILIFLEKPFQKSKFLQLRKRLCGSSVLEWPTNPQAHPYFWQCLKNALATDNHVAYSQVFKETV
In short: (§1)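 Human TLR7/8/9 HEK-Blue reporter lines; dose range 0.05 nM–50 μM; 30 min RT preincubation; stimulus gardiquimod 7.5 μM / R848 15.9 μM / ODN2006 5 nM respectively; 22 h, 37 °C; SEAP detected colorimetrically.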

human TLR8 = biological target: T2, human TLR8 (Homo sapiens, UniProt Q9NR97); assay: TLR8 inhibition reporter assay (HEK-Blue cells, SEAP reporter, R848 stimulation); conditions: HEK-Blue cells overexpressing human TLR8, SEAP reporter, R848 15.9 μM; read-out: TLR8 IC50
T2 construct: host or cells: HEK-Blue cells
T2 sequence (Q9NR97 27-1041): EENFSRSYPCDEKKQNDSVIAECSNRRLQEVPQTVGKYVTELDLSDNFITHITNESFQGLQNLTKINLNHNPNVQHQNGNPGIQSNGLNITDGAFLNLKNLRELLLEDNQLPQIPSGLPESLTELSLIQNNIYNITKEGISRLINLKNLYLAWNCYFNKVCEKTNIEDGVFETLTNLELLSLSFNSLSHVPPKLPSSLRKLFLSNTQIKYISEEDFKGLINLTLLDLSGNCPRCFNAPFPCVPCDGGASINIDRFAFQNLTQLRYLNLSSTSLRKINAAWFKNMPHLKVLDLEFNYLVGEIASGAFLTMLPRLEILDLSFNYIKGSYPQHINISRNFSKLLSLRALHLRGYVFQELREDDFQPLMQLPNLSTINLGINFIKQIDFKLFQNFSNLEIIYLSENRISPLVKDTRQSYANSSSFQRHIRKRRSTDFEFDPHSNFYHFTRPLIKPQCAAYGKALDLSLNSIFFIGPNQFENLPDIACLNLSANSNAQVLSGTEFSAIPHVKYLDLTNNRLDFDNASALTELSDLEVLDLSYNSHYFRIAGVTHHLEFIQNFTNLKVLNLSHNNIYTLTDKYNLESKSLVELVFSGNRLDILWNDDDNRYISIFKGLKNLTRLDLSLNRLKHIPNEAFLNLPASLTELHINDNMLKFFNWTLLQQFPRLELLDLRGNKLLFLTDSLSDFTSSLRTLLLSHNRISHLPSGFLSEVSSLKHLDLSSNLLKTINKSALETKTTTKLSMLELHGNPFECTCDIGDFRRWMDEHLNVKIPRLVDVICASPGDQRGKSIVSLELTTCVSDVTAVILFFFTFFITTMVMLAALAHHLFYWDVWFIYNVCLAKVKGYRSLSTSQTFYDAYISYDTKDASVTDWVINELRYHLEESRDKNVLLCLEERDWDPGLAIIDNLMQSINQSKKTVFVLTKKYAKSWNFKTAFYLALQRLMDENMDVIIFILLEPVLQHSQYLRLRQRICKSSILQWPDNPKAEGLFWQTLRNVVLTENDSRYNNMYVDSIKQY
In short: as §1

human TLR9 = biological target: T3, human TLR9 (Homo sapiens, UniProt Q9NR96); assay: TLR9 inhibition reporter assay (HEK-Blue cells, SEAP reporter, ODN2006 stimulation); conditions: HEK-Blue cells overexpressing human TLR9, SEAP reporter, ODN2006 5 nM
T3 construct: host or cells: HEK-Blue cells
T3 sequence (Q9NR96 26-1032): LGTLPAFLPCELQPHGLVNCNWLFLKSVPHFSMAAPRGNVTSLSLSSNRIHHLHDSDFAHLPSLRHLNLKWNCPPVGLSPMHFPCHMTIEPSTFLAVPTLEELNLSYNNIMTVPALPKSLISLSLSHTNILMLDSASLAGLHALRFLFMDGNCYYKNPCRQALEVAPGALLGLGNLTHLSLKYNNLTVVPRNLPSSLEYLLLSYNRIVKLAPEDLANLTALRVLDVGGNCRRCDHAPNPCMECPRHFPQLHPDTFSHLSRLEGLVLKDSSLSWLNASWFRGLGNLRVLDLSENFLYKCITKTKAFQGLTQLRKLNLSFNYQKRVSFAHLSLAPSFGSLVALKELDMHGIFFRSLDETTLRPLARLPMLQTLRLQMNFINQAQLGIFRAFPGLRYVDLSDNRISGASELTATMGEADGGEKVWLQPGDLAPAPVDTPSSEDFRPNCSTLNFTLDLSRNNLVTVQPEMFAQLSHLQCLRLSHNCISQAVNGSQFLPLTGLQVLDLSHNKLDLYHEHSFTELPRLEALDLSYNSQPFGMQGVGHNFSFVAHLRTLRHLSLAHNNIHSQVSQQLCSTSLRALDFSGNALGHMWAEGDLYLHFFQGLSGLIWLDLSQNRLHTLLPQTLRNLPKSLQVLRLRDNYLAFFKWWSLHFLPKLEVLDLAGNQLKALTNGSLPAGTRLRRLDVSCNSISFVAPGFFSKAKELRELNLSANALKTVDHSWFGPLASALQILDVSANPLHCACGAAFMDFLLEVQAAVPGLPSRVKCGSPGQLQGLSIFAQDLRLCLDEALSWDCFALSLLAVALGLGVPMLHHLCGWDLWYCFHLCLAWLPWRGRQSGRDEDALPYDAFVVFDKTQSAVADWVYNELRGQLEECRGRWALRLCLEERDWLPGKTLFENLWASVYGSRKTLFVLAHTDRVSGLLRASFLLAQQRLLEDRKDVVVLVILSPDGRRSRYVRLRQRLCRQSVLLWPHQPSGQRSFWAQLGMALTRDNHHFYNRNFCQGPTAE
In short: as §1

Compound | IC50 (human TLR7) [nM] | IC50 (human TLR8) [nM] | IC50 (human TLR9) [nM]
Cc1c(-c2[nH]c3sc(N4CC5(CN(CC(C)C)C5)C4)nc3c2C(C)C)cn2ncnc2c1C [Example 300, 5-(7,8-dimethyl-[1,2,4]triazolo[1,5-a]pyridin-6-yl)-2-(6-isobutyl-2,6-diazaspiro[3.3]heptan-2-yl)-6-isopropyl-4H-pyrrolo[3,2-d]thiazole] | 10.7 | 3.24 | 10100
Cc1c(-c2[nH]c3sc(N4CC5(CN(CCS(C)(=O)=O)C5)C4)nc3c2C(C)C)cn2ncnc2c1C [Example 304, 5-(7,8-dimethyl-[1,2,4]triazolo[1,5-a]pyridin-6-yl)-6-isopropyl-2-(6-(2-(methylsulfonyl)ethyl)-2,6-diazaspiro[3.3]heptan-2-yl)-4H-pyrrolo[3,2-d]thiazole] | 8.2 | 19.2 | 35600
Cc1c(-c2[nH]c3sc(N4CCNC[C@H]4C)nc3c2C(C)C)cn2ncnc2c1C [Example 308, (R)-5-(7,8-dimethyl-[1,2,4]triazolo[1,5-a]pyridin-6-yl)-6-isopropyl-2-(2-methylpiperazin-1-yl)-4H-pyrrolo[3,2-d]thiazole, HCl] | 0.18 | 0.09 | 15800
Cc1c(-c2[nH]c3sc(N4CCN(CC5CCOCC5)C[C@H]4C)nc3c2C(C)C)cn2ncnc2c1C [Example 317, (R)-5-(7,8-dimethyl-[1,2,4]triazolo[1,5-a]pyridin-6-yl)-6-isopropyl-2-(2-methyl-4-((tetrahydro-2H-pyran-4-yl)methyl)piperazin-1-yl)-4H-pyrrolo[3,2-d]thiazole] | 9.47 | 4.22 | 44400
Cc1c(-c2[nH]c3sc(N4CCN(C5CCC5)C[C@H]4C)nc3c2C(C)C)cn2ncnc2c1C [Example 323] | 22.4 | 3.86 | > 50000

The remaining compounds from weak to strong by IC50 (human TLR7), led by results:

IC50 (human TLR7) [nM] | IC50 (human TLR8) [nM] | IC50 (human TLR9) [nM] | Compound
7.99 | 0.93 | 26400 | Cc1c(-c2[nH]c3sc(N4CC5(CN(CC(C)(C)O)C5)C4)nc3c2C(C)C)cn2ncnc2c1C [Example 303, 1-(6-(5-(7,8-dimethyl-[1,2,4]triazolo[1,5-a]pyridin-6-yl)-6-isopropyl-4H-pyrrolo[3,2-d]thiazol-2-yl)-2,6-diazaspiro[3.3]heptan-2-yl)-2-methylpropan-2-ol]
7.77 | 1.53 | 12300 | Cc1c(-c2[nH]c3sc(N4CC5(CN(CC6CCOCC6)C5)C4)nc3c2C(C)C)cn2ncnc2c1C [Example 301, 5-(7,8-dimethyl-[1,2,4]triazolo[1,5-a]pyridin-6-yl)-6-isopropyl-2-(6-((tetrahydro-2H-pyran-4-yl)methyl)-2,6-diazaspiro[3.3]heptan-2-yl)-4H-pyrrolo[3,2-d]thiazole]
6.96 | 2.26 | 6240 | Cc1c(-c2[nH]c3sc(N4CCN(C5CCN(C(C)C)CC5)C[C@H]4C)nc3c2C(C)C)cn2ncnc2c1C [Example 324]
6.67 | 4.19 | 14400 | Cc1c(-c2[nH]c3sc(N4C[C@@H](C)NC[C@@H]4C)nc3c2C(C)C)cn2ncnc2c1C [Example 309, 5-(7,8-dimethyl-[1,2,4]triazolo[1,5-a]pyridin-6-yl)-2-((2S,5R)-2,5-dimethylpiperazin-1-yl)-6-isopropyl-4H-pyrrolo[3,2-d]thiazole]
6.23 | 0.83 | 21600 | Cc1c(-c2[nH]c3sc(N4CCN(C5CCOCC5)C[C@H]4C)nc3c2C(C)C)cn2ncnc2c1C [Example 318, (R)-5-(7,8-dimethyl-[1,2,4]triazolo[1,5-a]pyridin-6-yl)-6-isopropyl-2-(2-methyl-4-(tetrahydro-2H-pyran-4-yl)piperazin-1-yl)-4H-pyrrolo[3,2-d] thiazole]
4.38 | 1.3 | 21900 | CCN1CCN(c2nc3c(C(C)C)c(-c4cn5ncnc5c(C)c4C)[nH]c3s2)[C@H](C)C1 [Example 320, (R)-5-(7,8-dimethyl-[1,2,4]triazolo[1,5-a]pyridin-6-yl)-2-(4-ethyl-2-methylpiperazin-1-yl)-6-isopropyl-4H-pyrrolo[3,2-d]thiazole]
3.84 | 0.53 | 19400 | Cc1c(-c2[nH]c3sc(N4CCN(C)C[C@H]4C)nc3c2C(C)C)cn2ncnc2c1C [Example 319, (R)-5-(7,8-dimethyl-[1,2,4]triazolo[1,5-a]pyridin-6-yl)-2-(2,4-dimethylpiperazin-1-yl)-6-isopropyl-4H-pyrrolo[3,2-d]thiazole]
1.45 | 0.43 | 19300 | Cc1c(-c2[nH]c3sc(N4CCNC[C@@H]4C)nc3c2C(C)C)cn2ncnc2c1C [Example 310, (S)-5-(7,8-dimethyl-[1,2,4]triazolo[1,5-a]pyridin-6-yl)-6-isopropyl-2-(2-methylpiperazin-1-yl)-4H-pyrrolo[3,2-d]thiazole]

Reference: patent US20230139171A1 (SITA Information Networking Computing UK Limited, priority 2019, published 2023)
